Measurements: patent US9988626B2, “Neurocalcin delta inhibitors and therapeutic and non-therapeutic uses thereof” (Universität Zu Köln, priority 2013, dated 2018)
“Also recorded” adds a separate entry of the source.

Test system: zebrafish embryos
Assay: Zebrafish motor axon phenotype (znp-1 staining) after morpholino or mRNA injection
Format: in vivo
Settings: 34 hpf zebrafish, smn MO 4 ng, ncald MO 2 ng
Experimental: Zebrafish were dechorionated and fixed in 4% PFA-PBS 34 hours after fertilization. Collagenase digest was performed to permeabilize the larvae for the following antibody staining. In brief, fish were stained at 4° C. over night in 500 μl PBS-T/10% FCS containing znp-1 antibody (1:300, Hybridoma Bank). After all-day washing in PBS-T/1% FCS/1% BSA (changing solution every hour) fish were stained in PBS-T/1% DMSO/10% FCS containing secondary donkey anti-mouse antibody labelled with Alexafluor 488 (1:200, Invitrogen). After repeated washing, fish were stored in 80% glycerol/20% PBS in the dark at 4° C. Microscopic analysis of fish was performed in 80% glycerol on micro slides using a fluorescence microscope (Axioskop 2, Zeiss). The length of each of the first ten motoraxons behind the yolk was analyzed and evaluated. For NSC34 cell staining cells were fixed in 4% PFA for 15 min at RT. Following fixation, cells were rinsed 1× in PBS for 5 min. After another washing step with PBS, cells were permeabilized in 0.2% Triton X in PBS for 5 min. […]
The used antisense Morpholino (MO) was designed against the translational start codon of the ncald gene (Gene Tools, LLC): 5′-[…]-3′ (SEQ ID NO: 2). […] Six hours after injection embryos were sorted according to homogeneity of the rhodamine fluorescence signal reflecting the equal distribution of the injected MO solution. […]

smn MO: previously published morpholino knocking down zebrafish smn, CGACATCTTCTGCACCATTGGC (all phosphorodiamidate morpholino (PMO))
Motor axon phenotype (truncation, branching): high numbers of severely truncated motor neuron axons; also recorded: massive motor axon-specific outgrowth defects
